Laboratory results taken from PubChem BioAssay (NCI).
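Where inhibition never reached the appropriate level, the endpoint shown equals the highest concentration tested. Otherwise, values were interpolated linearly from a five-concentration, 48-hour dose response in 96-well plates. GI50 = concentration required for 50% inhibition of growth. Definition used: TGI = concentration required for complete inhibition of growth.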

Each molecule was assayed on K-562 leukemia (assay: inhibition of tumour cell growth, NCI panel, 48 h).
Molecule `CC1CN1c1c(C(=O)/C=C/c2ccccc2)c(-c2ccccc2)nn(C)c1=O` (centres undefined) has a TGI of 50.4 µM. With `c1ccc(P(=Nc2ccccc2N=P(c2ccccc2)(c2ccccc2)c2ccccc2)(c2ccccc2)c2ccccc2)cc1` the TGI was 11.2 µM. In the case of `COCCOCOc1ccc(OCOCCOC)c2c1C(=O)c1ccccc1C2=O`, the TGI is reported as over 100 µM. Work on `CCO/C=C1\N=C(c2ccccc2Br)OC1=O` yielded a TGI of over 100 µM. `O=P1(Oc2ccccc2)C(c2ccccc2)C(c2ccccc2)=NN1c1ccccc1` (centres undefined) gave a TGI of 66 µM. With `CCOC(=O)C(=O)Nc1cc(Cl)ccc1Cl` the TGI was over 100 µM. `N#Cc1ccc(N=Cc2c([O-])ccc3ccccc23)cc1.[C-]#[O+].[C-]#[O+].[Ir]` was tested, and the GI50 was 8.99 µM and the TGI was 28.9 µM. `[N-]=[N+]=C1C(=O)C2CC3CC(C2)CC1C3` gave a TGI of over 100 µM. In the case of `COC(CN1C=C(Sc2ccccc2)CC1)OC`, the TGI is reported as 53.7 µM. Molecule `CN(C)CCC(/C=C/c1ccccc1)=N\Nc1ccc(Cl)cc1Cl` has a TGI of 28.7 µM. Molecule `COc1ccc(C=O)c(NC(=O)C(C)C)c1` has a TGI of over 100 µM. For `Cc1cc2c(c(C(=O)O)c1C)-c1cccc(F)c1C2=O`, the TGI was over 100 µM. `Cc1ccc(NC(=O)c2ccccc2C(=O)O)cc1C` was tested, and the TGI was over 100 µM. For `Cc1ccc(S(=O)OC2C3CC4CC(C3)CC2C4)cc1` (centres undefined), the TGI was over 100 µM. `COc1ccc(-c2cc(=O)c3c(OC)c(OC)c(OC)c(OC)c3o2)cc1` showed a TGI of over 100 µM. `CN(C)c1ccc(/C=C2\C=Cc3ccccc32)cc1` gave a TGI of over 100 µM. For `COc1cc2nc(NCCCCCNC(=O)c3ccco3)nc(N)c2cc1OC`, the TGI was over 100 µM. With `COC(=O)C(C)(C)N=CN(C)C` the TGI was over 100 µM. Work on `C[C@@H]1O[C@@H](OC[C@H]2O[C@@H](OCCc3ccc(O)c(O)c3)[C@H](O)[C@@H](O)[C@@H]2OC(=O)/C=C/c2ccc(O)c(O)c2)[C@H](O)[C@H](O)[C@H]1O` yielded a GI50 of over 100 µM and a TGI of over 100 µM. Work on `Cc1cc(N(CCC#N)CCC#N)ccc1/C=C1/N=C(c2ccccc2)N(N)C1=O` yielded a TGI of over 100 µM. `CCOC1=C2N=C(Cc3ccccc3F)N=C2C(=O)c2ccccc21` gave a TGI of over 100 µM. For `CNS(=O)(=O)NNS(=O)(=O)c1ccc(Cl)cc1`, the TGI was over 100 µM. Work on `C=C1CCC2[C@@H](CCC3[C@]2(C)CCC[C@]3(C)C(=O)OC)[C@@H]1CC=O` (some centres undefined) yielded a GI50 of 26 µM and a TGI of 77.4 µM. `CN1COc2c(n(C)c(=O)[nH]c2=O)C1` showed a TGI of over 100 µM. With `CC1(C)OCC(C(O)C2OC(C)(C)OC2/C=N\O)O1` (centres undefined) the TGI was over 100 µM. In the case of `CCCCCCN(N)C(=O)CC#N`, the TGI is reported as over 100 µM. `O=C(O)/C(Cl)=C(\Cl)C(=O)Nc1ccc(Cl)c(Cl)c1Cl` showed a TGI of 83.1 µM. In the case of `COc1ccc(C(Cl)=C(c2ccc(OCCN(C)C)cc2)c2ccc(OCCN(C)C)cc2)cc1`, the TGI is reported as 3.69 µM. Molecule `CC1(C)C2CCC13CS(=O)(=O)N1O[C@]13C(=O)O2` (some centres undefined) has a TGI of over 100 µM.

What follows are molecules tested on U251 CNS (assay: inhibition of tumour cell growth, NCI panel, 48 h).
`Cc1nc2ccccc2c(/C=C/c2ccc(Br)cc2)c1C(=O)/C=C/c1ccccc1` showed a GI50 of 1.57 µM and a TGI of 2.97 µM. Molecule `CC1CN1c1c(C(=O)/C=C/c2ccccc2)c(-c2ccccc2)nn(C)c1=O` (centres undefined) has a TGI of 31.6 µM. Work on `c1ccc(P(=Nc2ccccc2N=P(c2ccccc2)(c2ccccc2)c2ccccc2)(c2ccccc2)c2ccccc2)cc1` yielded a TGI of 11.6 µM. Molecule `COCCOCOc1ccc(OCOCCOC)c2c1C(=O)c1ccccc1C2=O` has a TGI of over 100 µM. With `O=P1(Oc2ccccc2)C(c2ccccc2)C(c2ccccc2)=NN1c1ccccc1` (centres undefined) the TGI was 42.2 µM. `CCOC(=O)C(=O)Nc1cc(Cl)ccc1Cl` was tested, and the TGI was over 100 µM. With `N#Cc1ccc(N=Cc2c([O-])ccc3ccccc23)cc1.[C-]#[O+].[C-]#[O+].[Ir]` the GI50 was 13 µM and the TGI was 25.7 µM. `[N-]=[N+]=C1C(=O)C2CC3CC(C2)CC1C3` was tested, and the TGI was over 100 µM. For `COC(=O)CC1NC(=O)C1C1(C)OCCO1` (centres undefined), the TGI was over 100 µM. In the case of `CN(C)CCC(/C=C/c1ccccc1)=N\Nc1ccc(Cl)cc1Cl`, the TGI is reported as 24.7 µM. Molecule `COc1ccc(C=O)c(NC(=O)C(C)C)c1` has a TGI of over 100 µM. `Cc1cc2c(c(C(=O)O)c1C)-c1cccc(F)c1C2=O` was tested, and the TGI was over 100 µM. Molecule `Cc1ccc(NC(=O)c2ccccc2C(=O)O)cc1C` has a TGI of over 100 µM. Molecule `Cc1ccc(S(=O)OC2C3CC4CC(C3)CC2C4)cc1` (centres undefined) has a TGI of over 100 µM. With `COc1ccc(-c2cc(=O)c3c(OC)c(OC)c(OC)c(OC)c3o2)cc1` the TGI was over 100 µM. In the case of `CN(C)c1ccc(/C=C2\C=Cc3ccccc32)cc1`, the TGI is reported as over 100 µM. In the case of `COc1cc2nc(NCCCCCNC(=O)c3ccco3)nc(N)c2cc1OC`, the TGI is reported as 42.5 µM. Molecule `C/C=C(\C)c1cc(O)c(C)c2c1Oc1cc(O)c(Cl)c(C)c1C(=O)O2` has a TGI of 39.6 µM. Work on `COC(=O)C(C)(C)N=CN(C)C` yielded a TGI of over 100 µM. Work on `O=c1[nH]cnc2c(C3NC(CO)C(O)C3O)c[nH]c12` (centres undefined) yielded a GI50 of over 100 µM and a TGI of over 100 µM. `C[C@@H]1O[C@@H](OC[C@H]2O[C@@H](OCCc3ccc(O)c(O)c3)[C@H](O)[C@@H](O)[C@@H]2OC(=O)/C=C/c2ccc(O)c(O)c2)[C@H](O)[C@H](O)[C@H]1O` showed a GI50 of over 100 µM and a TGI of over 100 µM. With `Cc1cc(N(CCC#N)CCC#N)ccc1/C=C1/N=C(c2ccccc2)N(N)C1=O` the TGI was over 100 µM. `CCOC1=C2N=C(Cc3ccccc3F)N=C2C(=O)c2ccccc21` showed a TGI of over 100 µM. Work on `C=C1CCC2[C@@H](CCC3[C@]2(C)CCC[C@]3(C)C(=O)OC)[C@@H]1CC=O` (some centres undefined) yielded a GI50 of 46 µM and a TGI of over 100 µM. `CCCCCCCCCCCCCP(=O)(O)NCC(N)=O` showed a TGI of over 100 µM. `CN1COc2c(n(C)c(=O)[nH]c2=O)C1` gave a TGI of over 100 µM. Molecule `CC1(C)OCC(C(O)C2OC(C)(C)OC2/C=N\O)O1` (centres undefined) has a TGI of over 100 µM. `CCCCCCN(N)C(=O)CC#N` was tested, and the TGI was over 100 µM. In the case of `O=C(O)/C(Cl)=C(\Cl)C(=O)Nc1ccc(Cl)c(Cl)c1Cl`, the TGI is reported as 34.3 µM. Molecule `COc1ccc(C(Cl)=C(c2ccc(OCCN(C)C)cc2)c2ccc(OCCN(C)C)cc2)cc1` has a TGI of 3.25 µM. With `CC1(C)C2CCC13CS(=O)(=O)N1O[C@]13C(=O)O2` (some centres undefined) the TGI was over 100 µM.

These molecules were tested on HT29 colon (assay: inhibition of tumour cell growth, NCI panel, 48 h).
`Cc1nc2ccccc2c(/C=C/c2ccc(Br)cc2)c1C(=O)/C=C/c1ccccc1` showed a GI50 of 1.48 µM and a TGI of 6.58 µM. For `CC1CN1c1c(C(=O)/C=C/c2ccccc2)c(-c2ccccc2)nn(C)c1=O` (centres undefined), the TGI was 29.4 µM. In the case of `c1ccc(P(=Nc2ccccc2N=P(c2ccccc2)(c2ccccc2)c2ccccc2)(c2ccccc2)c2ccccc2)cc1`, the TGI is reported as 11.6 µM. `COCCOCOc1ccc(OCOCCOC)c2c1C(=O)c1ccccc1C2=O` showed a TGI of over 100 µM. Work on `CCO/C=C1\N=C(c2ccccc2Br)OC1=O` yielded a TGI of over 100 µM. `O=P1(Oc2ccccc2)C(c2ccccc2)C(c2ccccc2)=NN1c1ccccc1` (centres undefined) gave a TGI of 33 µM. Molecule `CCOC(=O)C(=O)Nc1cc(Cl)ccc1Cl` has a TGI of over 100 µM. In the case of `N#Cc1ccc(N=Cc2c([O-])ccc3ccccc23)cc1.[C-]#[O+].[C-]#[O+].[Ir]`, the GI50 is reported as 17.6 µM and the TGI is reported as 42.3 µM. `[N-]=[N+]=C1C(=O)C2CC3CC(C2)CC1C3` gave a TGI of over 100 µM.
